Measured values as given in patent publication US6878690B2, “Compounds and methods” (PharmAxis Pty Ltd., priority 2000, dated 2005).

Test system: myelin basic protein (MBP)-specific T lymphocyte cell lines
Test: Inhibition of T-lymphocyte migration across rat brain endothelial cell layer (Transwell, 51Cr-labelled cells)
Assay type: cell-based, Lewis rats
Details: test substance 10 mmolar in upper well; 6 hours; in comparison with the negative control (glucose 6-phosphate); triplicate
Description: Vascular endothelial cells were isolated from rat brain capillaries taken from 6 to 8 week old Lewis rats according to the method of Risau et al. (Risau, W., Engelhardt, B., and Wekerle, H., (1990). Journal of Cell Biology, vol 110, p 1757-1766, which is incorporated herein by reference). Colonies of endothelial cells were purified from astroglial cells and pericytes by a Thy1.1-mediated complement lysis also after the method of Risau et al. (vide supra). The endothelial colonies, according to methods known in the art, were grown in Dulbecco's minimum essential medium (DMEM) high glucose supplemented, with 20% fetal calf serum (FCS), glutamine, pyruvate, nonessential amino acids, 4-(2-hydroxyethyl)-1-piperazine ethane sulfonic acid buffer (HEPES), kanamycin, amphotericin, heparin (all from Gibco) and 150 micrograms/ml endothelial growth supplement (Collaborative Biomedical Products). Upon reaching confluence, the endothelial cultures were washed with 0.2% EDTA in phosphate buffered saline (PBS), trypsinized (Trypsin-EDTA, 0.1% final concentration, Gibco), washed and again incubated with anti-Thy1.1 antibody for 40 minutes, washed and incubated with complement sufficient to lyse all Thy1.1+ cells (Behringwerke, AG, Marburg, Germany) at room temperature, washed and plated on matrigel-coated 6.5 mm Transwells, […] (Corning Costar Corporation, Cambridge, Mass.). The endothelial cell characteristics and confluence of the monolayer were checked by measuring the electrical resistance (World Precision Instruments, New Haven, U.S.A., model EVOM-G) and by staining with FITC-labeled phalloidin (Sigma). In order to study the effect of the agents of the present invention on T lymphocyte migration, myelin basic protein (MBP)-specific T lymphocyte cell lines were generated according to the method of Ben-Nun et al. (Ben-Nun, A., Wekerle, H. and Cohen, I. R., 1981). The rapid isolation of clonable antigen-specific T lymphocyte lines capable of mediating autoimmune encephalomyelitis. European Journal of Immunology. 1981, 11(3), 195-199; incorporated herein by reference) from the lymph nodes of Lewis rats that had been immunised with MBP in Freund's complete adjuvant. These cells were used for migration studies during the first 4 days of their propagation in IL-2 containing medium, following antigen (MBP) restimulation in the presence of antigen-presenting cells from irradiated spleen cells or thymocytes taken from normal Lewis rats. The antigen-activated T lymphocytes were radio-labelled with sodium chromate (^51Cr, 37 MBq/ml, Amersham, UK) for 30 minutes at 37° C. with occasional agitation, they were then washed three times with the DMEM culture medium and placed into the upper chamber of the Transwells at 5×10^5 cells in 100 microliters of migration medium. Test and control substance were included in the upper wells at final concentrations of 0.1, 1 and 10 mM. Cell migration was monitored by light microscopy in order to gauge progress of the experiment. […] The combined material was transferred into scintillation vials and the radioactivity of each tube determined by counting for 1 minute in a Packard Auto-Gamma 5650 (IL, USA) gamma counter. Each test and the control substance (glucose 6-phosphate) and no treatment were assessed in triplicate. […]

Compound: CCCC1OC(COP(=O)(O)O)C(O)C(O)C1O (stereo not shown) [phosphoric acid mono-(6-propyl-3,4,5-trihydroxy-tetrahydro-pyran-2-ylmethyl) ester]
- % inhibition ± SEM: 64 ± 4%
